Measured values reported in patent US9169259B2, “Imidazopyridazine compounds” (Hoffmann-La Roche Inc., priority 2011, dated 2015).
Structures can show the parent of a compound that is named as a salt.

Molecular target: recombinant human SYK360-635 (Homo sapiens (Human), UniProt P43405)
Experiment: SYK kinase assay (33P ATP filtration, IC50 of SYK inhibition)
Assay type: biochemical
Conditions: truncated SYK aa 360-635 0.5 nM, ATP 20 μM, peptide 5 μM, 30° C. 15 min; read-out: ENZYME_FILTRATION_IC50
Description: Determination of IC50 of Spleen Tyrosine Kinase (SYK) Inhibition:
SYK kinase assay is a standard kinase assay adapted to a 96 well plate format. This assay is performed in 96-well format for IC50 determination with […] which represented 10 half log dilutions and a 40 μL reaction volume. The assay measures the incorporation of radiolabeled ^33P γATP into an N-terminally biotinylated peptide substrate, derived from naturally occurring phosphoacceptor consensus sequence (Biotin-11aa DY*E). Phosphorylated products were detected upon termination of reactions with EDTA and the addition of Streptavidin coated beads.
Assay plates: 96-well MultiScreen 0.65 um filter plates (Millipore Cat. No.: MADVNOB10)
final concentration: 50 mM HEPES pH7.5
BSA: Bovine Serum Albumin Fraction V, fatty acid free (Roche Diagnostics GmbH, Cat. No. 9100221) diluted to a final concentration of 0.1%
Assay Dilution Buffer (ADB): 50 mM HEPES, 0.1 mM EGTA, 0.1 mM Na Vanadate, 0.1 mM β-glycerophosphate, 10 mM MgCl2, 1 mM DTT, 0.1% BSA, pH 7.5
Bead wash buffer: 10 g/L PBS (Phosphate buffered saline) with 2M NaCl+1% phosphoric acid.
DMSO and the mixture was incubated for 10 min at RT.
The kinase reaction was initiated by the addition of 10 μL 4× substrate cocktail containing the DYE peptide substrate [0 or 5 μM], ATP [20 μM] and ^33PγATP [2 μCi/r×n]. After incubation at 30° C. for 15 min, the reaction was terminated by the transfer of 25 μL of the reaction sample to a 96 well 0.65 μm Millipore MADVNOB membrane/plate containing 200 μL 5 mM EDTA and 20% Streptavidine coated beads in PBS.
After the last wash membrane/plates were transferred to an adaptor plate, heat dried for 15 min at 60° C., and 50 μL scintillation cocktail was added to each well and 4 h later the amount of radioactivity was counted in a top counter.

| Compound | IC50 [nM] |
| --- | --- |
| CC1CCCN1c1cccc(Nc2cc(-c3cccc(C(=O)NCCN(C)C)c3)nn3ccnc23)n1 (stereo not drawn) [Example I-46, N-(2-Dimethylamino-ethyl)-3-{8-[6-(2-methyl-pyrrolidin-1-yl)-pyridin-2-ylamino]-imidazo[1,2-b]pyridazin-6-yl}-benzamide] | 141 |
| Cc1c(C(=O)O)cccc1-c1cc(Nc2cccc(N3CCC[C@@H]3C)n2)c2nccn2n1 [Example I-24, 2-Methyl-3-{8-[6-((S)-2-methyl-pyrrolidin-1-yl)-pyridin-2-ylamino]-imidazo[1,2-b]pyridazin-6-yl}-benzoic acid] | 194 |
| OCC1CCCN1c1cccc(Nc2cc(-c3ccccc3)nn3ccnc23)n1 (stereo not drawn) [Example I-31, {1-[6-(6-Phenyl-imidazo[1,2-b]pyridazin-8-ylamino)-pyridin-2-yl]-pyrrolidin-2-yl}-methanol hydrochloride] | 270 |
| COc1ccc(Nc2cc(-c3ccc(C(=O)NCCc4cc[nH]c(=O)c4)cc3)nn3ccnc23)nc1OC [Example I-28, 4-[8-(5,6-Dimethoxy-pyridin-2-ylamino)-imidazo[1,2-b]pyridazin-6-yl]-N-[2-(2-oxo-1,2-dihydro-pyridin-4-yl)-ethyl]-benzamide] | 187 |
| COc1cccc(-c2cc(Nc3cccc(N4CCCC4C)n3)c3nccn3n2)c1 (stereo not drawn) [Example I-39, [6-(3-Methoxy-phenyl)-imidazo[1,2-b]pyridazin-8-yl]-[6-(2-methyl-pyrrolidin-1-yl)-pyridin-2-yl]-amine] | 292 |
| CC(CO)NC(=O)c1cccc(-c2cc(Nc3cccc(N4CCCC4C)n3)c3nccn3n2)c1 (stereo not drawn) [Example I-41, N-(2-Hydroxy-1-methyl-ethyl)-3-{8-[6-(2-methyl-pyrrolidin-1-yl)-pyridin-2-ylamino]-imidazo[1,2-b]pyridazin-6-yl}-benzamide] | 130 |
| CC1CCCN1c1cccc(Nc2cc(-c3ccc(C(C)(C)C)cc3)nn3ccnc23)n1 (stereo not drawn) [Example I-85, [6-(4-tert-Butyl-phenyl)-imidazo[1,2-b]pyridazin-8-yl]-[6-(2-methyl-pyrrolidin-1-yl)-pyridin-2-yl]-amine] | 610 |
| CC1CCCN1c1cccc(Nc2cc(-c3cccc(O)c3)nn3ccnc23)n1 (stereo not drawn) [Example I-86, 3-{8-[6-(2-Methyl-pyrrolidin-1-yl)-pyridin-2-ylamino]-imidazo[1,2-b]pyridazin-6-yl}-phenol] | 102 |
| CC(C)(C)C1CCN(c2cccc(Nc3cc(-c4cccc(C(N)=O)c4)nn4ccnc34)n2)C1 (stereo not drawn) [Example I-67, 3-{8-[6-(3-tert-Butyl-pyrrolidin-1-yl)-pyridin-2-ylamino]-imidazo[1,2-b]pyridazin-6-yl}-benzamide] | 280 |
